Data published in patent US20240400589A1, “4-AMINOPHENYLPHOSPHO[…] FOR BLOCKING C-REACTIVE PROTEIN” (Pentracor GmbH, priority 2021, published 2024).
Read-outs that look alike come from different tables or passages of the source. Where a SMILES comes first, the peptide text is derived from it. The star is where a group is joined. X1 = C[N+](C)(C)CCOP(=O)([O-])Oc1ccc(N*)cc1

Experiments:
[1] = target: T1, CRP (CRP-containing human plasma) (Homo sapiens, UniProt P02741); test: Inhibition of CRP binding to a plate-coated BSA-APPC construct
T1 construct: from tissue; host or cells: human plasma
T1 sequence (P02741 19-224): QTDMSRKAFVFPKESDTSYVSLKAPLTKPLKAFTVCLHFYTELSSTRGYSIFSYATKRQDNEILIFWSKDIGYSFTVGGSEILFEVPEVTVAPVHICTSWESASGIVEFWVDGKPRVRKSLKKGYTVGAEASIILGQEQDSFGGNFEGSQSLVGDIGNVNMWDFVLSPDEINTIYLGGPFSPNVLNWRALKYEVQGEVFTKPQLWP
Description: A microtiter plate was coated with 100 μg/mL of a BSA-APPC construct, which binds CRP in a calcium-dependent manner, for 1 hour at room temperature (coating buffer: 0.1 M NaHCO3). Subsequently, 4 washes with 400 μl binding buffer (0.1 M Tris, 0.2 M NaCl, 2 mM CaCl2)) and non-specific binding sites were saturated with block solution (1% casein, 0.9% NaCl, 0.001% thiomersal) for 1 h at room temperature or overnight at 2-8° C.
Afterwards, the block solution was removed and the samples were applied in binding buffer. CRP-containing human plasma was diluted to 50 ng/mL CRP and applied either pure or together with different concentrations (0.25-3 mM) of the various inhibitors 1, 4, 5 and APPC and incubated for 1.5 h at room temperature with horizontal shaking (600 rpm). The plate was then washed again as described above.
After washing, 100 μL of a POD-labelled rabbit anti-huCRP antibody (final concentration: 25 ng/mL) in calcium-containing block solution (final concentration of calcium 4 mM) was added and the plate was incubated for 1.5 h at room temperature with shaking.
The plate was then washed again as described above. Development was carried out by adding 100 μl substrate buffer (0.2 M citric acid, 0.01% H2O2, 100 μg/mL TMB). The colour reaction was stopped by adding 50 μL of 1 M H2SO4 and the absorbance was measured at 450 nm. The absorbance at 655 nm (turbidity) was subtracted as background.
For the determination of inhibition, the OD of the CRP with inhibitor was normalised to the OD of the CRP without inhibitor:
The relative OD was then plotted against the concentration of stabilised APPC constructs in the batch. Only APPC was used as a comparative sample. It is clear that constructs 1 and 5 or 3 and APPC show an inhibition curve that is identical within the measurement uncertainty. […] For APPC/3, the corresponding concentration is 0.7±0.06 mmol/L. Thus, all stabilised APPC constructs show a good inhibition capacity.

[2] = target: T2, huCRP (Homo sapiens, UniProt P02741); test: ELISA: binding of free CRP and free biotin-D-Glu(APPC)-NH2 in solution, complex captured on streptavidin plates; details: for Optical Density (OD): mean of duplicates
T2 sequence (P02741 19-224): T1 sequence (P02741 19-224)
Description: CRP and compound 2 were incubated in a reaction vessel for 1 h at room temperature for complexation. The final concentrations were 10 μg/ml CRP (MW approx. 125 KD) and 2 μg/ml compound 2 (MW approx. 1 KD). The solution was then added to streptavidin-coated microtiter plates (MTP) at the dilution levels indicated in Tab. 2 at […] each and incubated with a block solution (Roche) for 30 min at room temperature. The MTPs were then washed 3 times. Using the in house monoclonal antibody “DH7” specific for huCRP and a peroxidase-conjugated secondary antibody (anti-mouse) as well as the substrate TMB, the huCRP previously bound to compound 2 was detected.

[3] = target: T2, huCRP; test: ELISA: binding of CRP to solid phase-fixed biotin-D-Glu(APPC)-NH2 on streptavidin-coated microtiter plates; details: for Optical Density (OD): mean of duplicates
Description: Streptavidin-coated microtiter plates were incubated with a solution containing biotin-D-Glu(APPC)—NH2) (2) and then washed with phosphate buffer (PBS). The reactive parts of the MTP surface were then blocked with BSA solution (a standard procedure). CRP was then added in a concentration range of 31-500 ng/ml and incubated (see table below). After renewed washing, the bound CRP was detected using a murine monoclonal antibody (DH7) against CRP and a secondary, POD-conjugated anti-mouse antibody, followed by substrate development

[4] = 50 ng/mL CRP from human plasma, inhibitor 0.25-3 mM, BSA-APPC coated plate, read-out: 50% inhibitor concentration (IC50)

In the case of `C[N+](C)(C)CCOP(=O)([O-])Oc1ccc(N)cc1` [APPC, 4-aminophenylphosphocholine, reference compound], the IC50 [1, 4] is reported as 700 ± 60 µM.

For `C[N+](C)(C)CCOP(=O)([O-])Oc1ccc(NC(=O)CC[C@@H](N)C(N)=O)cc1` [Compound 1, D-Glu(APPC)—NH2], the IC50 [1, 4] was 1600 ± 100 µM.

For `C[N+](C)(C)CCOP(=O)([O-])Oc1ccc(NC(=O)CC[C@@H](NC(=O)CCCC[C@@H]2SC[C@@H]3NC(=O)N[C@@H]32)C(N)=O)cc1` [Compound 2, Biotin-D-Glu(APPC)—NH2], the “Optical Density (OD)” value ([2]; complex dilution 1:20, 10 μg/ml CRP + 2 μg/ml compound 2) was 2.685, the “Optical Density (OD)” value ([2]; complex dilution 1:40) was 2.219 and the “Optical Density (OD)” value ([2]; complex dilution 1:80) was 1.801. For the same compound, the “Optical Density (OD)” value ([2]; complex dilution 1:160) was 1.242, the “Optical Density (OD)” value ([2]; complex dilution 1:320) was 0.875 and the “Optical Density (OD)” value ([2]; complex dilution 1:640) was 0.548. The “Optical Density (OD)” value ([2]; complex dilution 1:1280) was 0.381, the “Binding of CRP in solution (dilution series, FIG. 2)” value ([2]; free CRP and free compound, 1 h room temperature) was “binds CRP in solution” and the “Optical Density (OD)” value ([3]; CRP 31 ng/ml) was 1.061. The “Optical Density (OD)” value ([3]; CRP 62.5 ng/ml) was 1.512, the “Optical Density (OD)” value ([3]; CRP 125 ng/ml) was 2.081 and the “Optical Density (OD)” value ([3]; CRP 250 ng/ml) was 2.627. The “Optical Density (OD)” value ([3]; CRP 500 ng/ml) was 3.242 and the “Binding to CRP (CRP binding curve, FIG. 1)” value ([3]; solid phase-fixed compound) was “binds to CRP”.

For `CC(=O)N1CCC[C@H]1C(=O)N[C@@H](C)C(=O)N[C@@H](CO)C(=O)N[C@@H](CCC(=O)Nc1ccc(OP(=O)([O-])OCC[N+](C)(C)C)cc1)C(=O)N1CCC[C@H]1C(=O)N[C@@H](C)C(=O)N[C@@H](CO)C(N)=O` [Compound 5] (Ac-PASE(X1)PAS-NH2), the IC50 [1] was 1600 ± 100 µM.
